Calls of active or inactive are those of the source. The rule behind the calls is not given here.
Target: Beta-galactosidase (Escherichia coli) (UniProt Q8VNN2)
Assay: inhibitors of purified bacterial beta-gal – biochemical, counter-screen, dose response (AID 1966)
Conditions: purified E. coli beta-galactosidase enzyme activity

Sequence of Beta-galactosidase (Escherichia coli) (Q8VNN2 whole entry, looked up): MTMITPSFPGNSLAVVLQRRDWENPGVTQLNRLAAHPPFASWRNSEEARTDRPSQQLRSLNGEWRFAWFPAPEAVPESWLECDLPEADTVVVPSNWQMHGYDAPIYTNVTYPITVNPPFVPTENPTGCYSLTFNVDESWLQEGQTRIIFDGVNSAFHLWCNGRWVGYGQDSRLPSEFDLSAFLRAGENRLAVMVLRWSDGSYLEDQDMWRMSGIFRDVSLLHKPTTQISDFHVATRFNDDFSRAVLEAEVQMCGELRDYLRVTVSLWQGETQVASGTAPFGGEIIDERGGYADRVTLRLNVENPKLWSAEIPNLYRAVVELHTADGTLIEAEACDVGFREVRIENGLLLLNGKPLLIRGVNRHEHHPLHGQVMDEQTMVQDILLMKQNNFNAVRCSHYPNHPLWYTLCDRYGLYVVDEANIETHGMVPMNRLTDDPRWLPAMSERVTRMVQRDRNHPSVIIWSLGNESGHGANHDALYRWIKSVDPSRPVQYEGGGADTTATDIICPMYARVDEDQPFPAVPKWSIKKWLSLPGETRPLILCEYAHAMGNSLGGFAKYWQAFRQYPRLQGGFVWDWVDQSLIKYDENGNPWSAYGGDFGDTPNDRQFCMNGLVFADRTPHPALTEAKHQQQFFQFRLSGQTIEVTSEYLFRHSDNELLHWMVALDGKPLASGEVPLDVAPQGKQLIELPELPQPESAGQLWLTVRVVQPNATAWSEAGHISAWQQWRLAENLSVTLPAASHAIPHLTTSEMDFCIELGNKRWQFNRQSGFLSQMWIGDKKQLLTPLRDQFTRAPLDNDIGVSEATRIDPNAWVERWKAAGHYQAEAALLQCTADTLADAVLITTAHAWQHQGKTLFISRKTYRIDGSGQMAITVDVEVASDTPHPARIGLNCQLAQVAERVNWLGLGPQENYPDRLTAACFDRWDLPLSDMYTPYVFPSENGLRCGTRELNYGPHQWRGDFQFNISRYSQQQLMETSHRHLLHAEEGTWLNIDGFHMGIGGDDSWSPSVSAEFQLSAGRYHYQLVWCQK

## CCNC(=O)C1CCCN1C(=O)C(CCCN=C(N)N)NC(=O)C(CC(C)C)NC(=O)C(Cc1cn(Cc2ccccc2)cn1)NC(=O)C(Cc1ccc(O)cc1)NC(=O)C(CO)NC(=O)C(Cc1c[nH]c2ccccc12)NC(=O)C(Cc1cnc[nH]1)NC(=O)C1CCC(=O)N1 (stereo unspecified)
  IC50: > 31.5 µM (inactive)

— PubChem BioAssay AID1966 (Sanford-Burnham Center for Chemical Genomics, 2009)
